Key:
[1] = tested on: nightshade (eastern black nightshade, Solanum ptycanthum); assay: Test F pre-/postemergence: nightshade; format: in vivo; conditions: Preemergence
Description: (§1) Seeds of plant species selected from corn (Zea mays), soybean (Glycine max), velvetleaf (Abutilon theophrasti), lambsquarters (Chenopodium album), poinsettia, wild (wild poinsettia, Euphorbia heterophylla), pigweed, palmer (palmer pigweed, Amaranthus palmeri), waterhemp (common waterhemp, Amaranthus rudis), surinam grass (Brachiaria decumbens), crabgrass, Brazil (Brazilian crabgrass, Digitaria horizontalis), panicum, fall (fall panicum Panicum dichotomiflorum), crabgrass, large (large crabgrass, Digitaria sanguinalis), foxtail, giant (giant foxtail, Setaria faberii), foxtail, green (green foxtail Setaria viridis), goosegrass (Eleusine indica), ragweed (common ragweed, Ambrosia elatior), barnyardgrass (Echinochloa crus-galli), sandbur (southern sandbur, Cenchrus echinatus), arrowleaf sida (Sida rhombifolia), ryegrass, Italian (Italian ryegrass, Lolium multiflorum), dayflower, VA (Virginia (VA) dayflower, Commelina virginica), field bindweed (Convolvulus arvensis), cocklebur (common cocklebur, Xanthium strumarium), morningglory (Ipomoea coccinea), nightshade (eastern black nightshade, Solanum ptycanthum), kochia (Kochia scoparia), nutsedge, yellow (yellow nutsedge, Cyperus esculentus), johnsongrass (Sorghum halepense), smartweed (ladysthumb smartweed, Polygonum persicaria), and beggarticks (hairy beggarticks, Bidens pilosa), were planted into a silt loam soil and treated preemergence with test chemicals formulated in a non-phytotoxic solvent mixture which included a surfactant. At the same time, plants selected from these crop and weed species and also pigweed (Amaranthus retroflexus), waterhemp_RES1 (ALS/Triazine resistant common waterhemp, Amaranthus rudis) and waterhemp_RES2 (ALS/HPPD resistant common waterhemp, Amaranthus rudis) were planted in pots containing a planting medium comprising spaghnum peat moss, vermiculite, wetting agent and starter nutrients treated with postemergence applications of some of the test chemicals formulated in the same manner. Plants ranged in height from 2 to 18 cm for postemergence treatments (1- to 4-leaf stage).
(§2) Treated plants and controls were maintained in a greenhouse for 14 to 21 days, after which time all species were compared to controls and visually evaluated. Plant response ratings, summarized in Table E, are based on a scale of 0 to 100 where 0 is no effect and 100 is complete control. A dash (-) response means no test result.

[2] = tested on: nutsedge, yellow (yellow nutsedge, Cyperus esculentus); assay: Test F pre-/postemergence: nutsedge, yellow; format: in vivo; conditions: Preemergence
Description: as §1, §2

[3] = tested on: arrowleaf sida (Sida rhombifolia); assay: Test F pre-/postemergence: arrowleaf sida; format: in vivo
Description: as §1, §2

[4] = tested on: morningglory (Ipomoea coccinea); assay: Test F pre-/postemergence: morningglory; format: in vivo; conditions: Preemergence
Description: as §1, §2

[5] = tested on: poinsettia, wild (wild poinsettia, Euphorbia heterophylla); assay: Test F pre-/postemergence: poinsettia, wild; format: in vivo
Description: as §1, §2

Barnyardgrass = assay: Test C postemergence: barnyardgrass; format: in vivo, Echinochloa crus-galli
Description: At the same time, plants selected from these crop and weed species and also barley (winter barley, Hordeum vulgare), canarygrass (Phalaris minor), chickweed (common chickweed, Stellaria media) windgrass (Apera spica-venti) and deadnettle (henbit deadnettle, Lamium amplexicaule) were planted in pots containing Redi-Earth® planting medium (Scotts Company, 14111 Scottslawn Road, Marysville, Ohio 43041) comprising spaghnum peat moss, vermiculite, wetting agent and starter nutrients and treated with postemergence applications of test chemicals formulated in the same manner. Plants ranged in height from 2 to 18 cm (1- to 4-leaf stage) for postemergence treatments.
as §2, with “13” for “14”, “15” for “21”, “C,” for “E,”

[6] = 16 g ai/ha, scale 0 to 100 (0 no effect, 100 complete control)
[7] = 31 g ai/ha, scale 0 to 100 (0 no effect, 100 complete control)
[8] = Preemergence, 16 g ai/ha, scale 0 to 100 (0 no effect, 100 complete control)
[9] = Preemergence, 31 g ai/ha, scale 0 to 100 (0 no effect, 100 complete control)
[10] = Preemergence, 62 g ai/ha, scale 0 to 100
[11] = Preemergence, 125 g ai/ha, scale 0 to 100
[12] = 62 g ai/ha, scale 0 to 100 (0 no effect, 100 complete control)
[13] = Preemergence, 250 g ai/ha, scale 0 to 100
[14] = 4 g ai/ha, scale 0 to 100, 0 no effect, 100 complete control
[15] = 8 g ai/ha, scale 0 to 100, 0 no effect, 100 complete control
[16] = Postemergence, 4 g ai/ha, scale 0 to 100
[17] = Postemergence, 8 g ai/ha, scale 0 to 100
[18] = Postemergence, 16 g ai/ha, scale 0 to 100
[19] = Postemergence, 31 g ai/ha, scale 0 to 100
[20] = Postemergence, 62 g ai/ha, scale 0 to 100
[21] = Preemergence, 4 g ai/ha, scale 0 to 100, 0 no effect, 100 complete control
[22] = Preemergence, 8 g ai/ha, scale 0 to 100, 0 no effect, 100 complete control

SMILES: Fc1ccc(-n2nc(Cc3ccnc(C(F)(F)F)c3)c(OCC(F)(F)F)n2)cc1 [Compound 142]
- Plant response rating, Nightshade [1, 6]: 65
- Plant response rating, Nightshade [1, 7]: 80
- Plant response rating, Nightshade ([1]; 125 g ai/ha, scale 0 to 100): 98
- Plant response rating, Nutsedge, Yellow [2, 6]: 0
- Plant response rating, Nutsedge, Yellow [2, 7]: 0
- Plant response rating, Nutsedge, Yellow ([2]; 125 g ai/ha, scale 0 to 100): 0
- Plant response rating, Arrowleaf Sida [3, 8]: 0
- Plant response rating, Arrowleaf Sida [3, 9]: 30
- Plant response rating, Arrowleaf Sida [3, 10]: 30
- Plant response rating, Arrowleaf Sida [3, 11]: 35
- Plant response rating, Morningglory [4, 6]: 0
- Plant response rating, Morningglory [4, 7]: 0
- Plant response rating, Morningglory ([4]; 125 g ai/ha, scale 0 to 100): 35
- Plant response rating, Poinsettia, Wild [5, 8]: 0
- Plant response rating, Poinsettia, Wild [5, 9]: 10
- Plant response rating, Poinsettia, Wild [5, 11]: 70

SMILES: CCCc1nn(-c2ccc(F)cc2)nc1Cc1ccnc(C(F)(F)F)c1 [Compound 153]
- Plant response rating, Barnyardgrass (Barnyardgrass; [7]): 20
- Plant response rating, Barnyardgrass (Barnyardgrass; [12]): 35
- Plant response rating, Barnyardgrass (Barnyardgrass; 250 g ai/ha, scale 0 to 100): 75
- Plant response rating, Nightshade [1, 6]: 50
- Plant response rating, Nightshade [1, 7]: 50
- Plant response rating, Nightshade ([1]; 125 g ai/ha, scale 0 to 100): 100
- Plant response rating, Nightshade ([1]; 250 g ai/ha, scale 0 to 100): 100
- Plant response rating, Nutsedge, Yellow [2, 6]: 0
- Plant response rating, Nutsedge, Yellow [2, 7]: 0
- Plant response rating, Nutsedge, Yellow ([2]; 125 g ai/ha, scale 0 to 100): 10
- Plant response rating, Nutsedge, Yellow ([2]; 250 g ai/ha, scale 0 to 100): 10
- Plant response rating, Arrowleaf Sida [3, 8]: 5
- Plant response rating, Arrowleaf Sida [3, 9]: 5
- Plant response rating, Arrowleaf Sida [3, 10]: 25
- Plant response rating, Arrowleaf Sida [3, 11]: 25
- Plant response rating, Arrowleaf Sida [3, 13]: 65
- Plant response rating, Morningglory [4, 6]: 0
- Plant response rating, Morningglory [4, 7]: 30
- Plant response rating, Morningglory ([4]; 125 g ai/ha, scale 0 to 100): 65
- Plant response rating, Morningglory ([4]; 250 g ai/ha, scale 0 to 100): 65
- Plant response rating, Poinsettia, Wild [5, 8]: 0
- Plant response rating, Poinsettia, Wild [5, 9]: 25
- Plant response rating, Poinsettia, Wild [5, 11]: 70
- Plant response rating, Poinsettia, Wild [5, 13]: 98

SMILES: Cc1nn(-c2ccc(C(F)(F)F)c(F)c2)nc1Cc1ccnc(C(F)(F)F)c1 [Compound 162]
- Plant response rating, Barnyardgrass (Barnyardgrass; [7]): 20
- Plant response rating, Barnyardgrass (Barnyardgrass; [12]): 65
- Plant response rating, Barnyardgrass (Barnyardgrass; 250 g ai/ha, scale 0 to 100): 95
- Plant response rating, Nightshade [1, 14]: 0
- Plant response rating, Nightshade [1, 15]: 0
- Plant response rating, Nightshade [1, 6]: 5
- Plant response rating, Nutsedge, Yellow [2, 14]: 0
- Plant response rating, Nutsedge, Yellow [2, 15]: 0
- Plant response rating, Nutsedge, Yellow [2, 6]: 35
- Plant response rating, Nutsedge, Yellow [2, 7]: 35
- Plant response rating, Arrowleaf Sida [3, 16]: 10
- Plant response rating, Arrowleaf Sida [3, 17]: 25
- Plant response rating, Arrowleaf Sida [3, 18]: 30
- Plant response rating, Arrowleaf Sida [3, 19]: 35
- Plant response rating, Arrowleaf Sida [3, 20]: 60
- Plant response rating, Arrowleaf Sida [3, 21]: 0
- Plant response rating, Arrowleaf Sida [3, 22]: 0
- Plant response rating, Arrowleaf Sida [3, 8]: 0
- Plant response rating, Arrowleaf Sida [3, 9]: 0
- Plant response rating, Arrowleaf Sida [3, 10]: 0
- Plant response rating, Morningglory [4, 14]: 0
- Plant response rating, Morningglory [4, 15]: 0
- Plant response rating, Morningglory [4, 6]: 20
- Plant response rating, Morningglory [4, 7]: 30
- Plant response rating, Poinsettia, Wild [5, 16]: 15
- Plant response rating, Poinsettia, Wild [5, 17]: 30
- Plant response rating, Poinsettia, Wild [5, 18]: 60
- Plant response rating, Poinsettia, Wild [5, 19]: 75
- Plant response rating, Poinsettia, Wild [5, 20]: 80
- Plant response rating, Poinsettia, Wild [5, 21]: 0
- Plant response rating, Poinsettia, Wild [5, 22]: 0
- Plant response rating, Poinsettia, Wild [5, 8]: 0
- Plant response rating, Poinsettia, Wild [5, 9]: 10

SMILES: CCc1nn(-c2ccc(F)cc2)nc1Oc1ccnc(C(F)(F)F)c1 [Compound 166]
- Plant response rating, Barnyardgrass (Barnyardgrass; [7]): 10
- Plant response rating, Barnyardgrass (Barnyardgrass; [12]): 25
- Plant response rating, Barnyardgrass (Barnyardgrass; 250 g ai/ha, scale 0 to 100): 60

SMILES: CCCc1nn(-c2ccc(C(F)(F)F)c(F)c2)nc1Oc1ccnc(C(F)(F)F)c1 [Compound 185]
- Plant response rating, Barnyardgrass (Barnyardgrass; [7]): 30
- Plant response rating, Barnyardgrass (Barnyardgrass; [12]): 35
- Plant response rating, Barnyardgrass (Barnyardgrass; 250 g ai/ha, scale 0 to 100): 80

— US9302999B2, “Substituted triazoles as herbicides” (E. I. DU PONT DE NEMOURS AND COMPANY, priority 2012, dated 2016)
